Data reported in US20200264182A1, “METHOD FOR DETECTING PROSTATE CANCER” (J-OIL MILLS, INC., priority 2017, published 2020).

Key:
[1] = FAC binding constant; conditions: at 25° C.
Method: (§1) Details of the FAC method are described in Patent Document 2 filed by some of the present applicants, for example.
(§2) Binding constants (at 25° C.) of PhoSL, SRL, NSL and LSL belonging to the fucose α1→6 specific lectin for various sugar chains are shown in Tables 2 to 5.

[2] = FAC binding constant (Table 5 entry); conditions: Table 5: sugar chain having no fucose; at 25° C.
Method: as §1, §2

[3] = tested on: serum fucosylated PSA; experiment: Sandwich ELISA, anti-PSA antibody and biotin-labeled lectin; assay type: binding, human; conditions: for Δ (=A − B): reaction value of Prostate cancer 4 minus Healthy 1; for lectin reaction value B of Healthy 1: serum of Healthy 1; for lectin reaction value A of Prostate cancer 4: serum of Prostate cancer 4, GS 6 (3 + 3)
Method: The anti-PSA antibody from which sugar chains had been removed was diluted to 5 μg/mL with PBS. 25 μL of this diluted solution was added to each well of an ELISA plate and allowed to stand at 37° C. for 12 hours, and then the additive solution was discarded.
150 μL of PBS containing 0.05% Tween 20 (product name: polyoxyethylene sorbitan monolaurate, from Nacalai Tesque, Inc.) was added to each well, and then the additive solution was discarded. This manipulation was repeated three times in total.
25 μL of 1% BSA/PBS was added to each well and allowed to stand at 37° C. for 1 hour, and then the additive solution was discarded.
150 μL of PBS containing 0.05% Tween 20 was added to each well, and then the additive solution was discarded. This manipulation was repeated three times in total.
To graph a calibration curve, 25 μL of the fucosylated PSA reference standard diluted with 1% BSA/PBS to a concentration of 0 to 200 ng/mL was added to each well and allowed to stand at room temperature for 1 hour, and then the additive solution was discarded. In addition, to detect the fucosylated PSA in the serum of the subject by the lectin, 25 μL of serum of “Healthy 1” and “Prostate cancer 4” 2-fold diluted with PBS was added to each well and allowed to stand at room temperature for 1 hour, and then the additive solution was discarded.
In Reference Example 1, 25 μL of a biotin-labeled PhoSL diluted to 0.1 μg/mL with 0.1% BSA/PBS (pH 7.4) was added to each well and allowed to stand at 4° C. for 30 minutes, and then the additive solution was discarded. In Example 1, 25 μL of a biotin-labeled PhoSL diluted to 0.1 μg/mL with 0.1% BSA/10-fold diluted PBS+glycine-NaOH (pH 9.6) was added to each well and allowed to stand at 4° C. for 30 minutes, and then the additive solution was discarded.
25 μL of a horseradish peroxidase (HRP)-labeled streptavidin solution (from Vector Laboratories, Inc., concentration: 0.4 μg/mL, in 1% BSA/PBS) was added to each well and allowed to stand at room temperature for 30 minutes, and then the additive solution was discarded.
25 μL of chromogenic substrate for HRP (product name: TMB, from Kirkegaard & Perry Laboratories, Inc.) was added to each well and allowed to stand at room temperature for 10 minutes.
25 μL of 1M phosphoric acid was added to terminate the reaction.
Absorbance (Ab) at 450 nm and 630 nm was measured using a plate reader, and a measurement (Ab450-630) was obtained.
A calibration curve was graphed by plotting signals (reaction values, Ab450-630) of the fucosylated PSA reference standard with the biotin-labeled PhoSL. A Signal (Ab450-630) of the biotin-labeled PhoSL corresponding to the fucosylated PSA concentration of 10 ng/mL was defined as 10 U/mL.
The signals of biotin-labeled PhoSL (Ab450-630) for the serum fucosylated PSA in the subject samples A were assigned to the calibration curve to calculate reaction values (unit: U/mL).
The PhoSL reaction values for the subject samples A were measured by the same operation as in Example 1. From the PhoSL reaction values, an average value and a median value were determined. Furthermore, a standard cutoff value (89.7 U/mL) was used to determine a detection rate (positive rate) of the prostate cancer patients, and a false detection rate (false positive rate) of the healthy persons.
Comparative Example 2 in Table 9 indicates results of detecting the serum fucosylated PSA using AAL (AAL reaction values) in the subject samples A. Specifically, in Reference Example 1, AAL reaction values were measured in the same manner as in Reference Example 1 except that the biotin-labeled PhoSL was replaced with a biotin-labeled AAL. A standard cut-off value for the AAL reaction values was 894.8 U/mL. As in Example 2, an average value, a median value, a positive rate and a false positive rate were determined from the AAL reaction values.

[4] = sugar chain having fucose other than α1→6 fucose

- Binding constant for sugar chain No. 728 ([1]; Table 3: sugar chain having fucose other than α1→6 fucose): <1000 M⁻¹
- Binding constant for sugar chain No. 419 [1, 4]: <1000 M⁻¹
- Binding constant for sugar chain No. 420 [1, 4]: <1000 M⁻¹
- Binding constant for sugar chain No. 718 [1, 4]: <1000 M⁻¹
- Binding constant for sugar chain No. 719 [1, 4]: <1000 M⁻¹
- Binding constant for sugar chain No. 720 [1, 4]: <1000 M⁻¹
- Binding constant for sugar chain No. 721 [1, 4]: <1000 M⁻¹
- Binding constant for sugar chain No. 722 [1, 4]: <1000 M⁻¹
- Binding constant for sugar chain No. 723 [1, 4]: <1000 M⁻¹
- Binding constant for sugar chain No. 726 [1, 4]: <1000 M⁻¹
- Binding constant for sugar chain No. 727 [1, 4]: <1000 M⁻¹
- Binding constant for sugar chain No. 729 [1, 4]: <1000 M⁻¹
- Binding constant for sugar chain No. 730 [1, 4]: <1000 M⁻¹
- Binding constant for sugar chain No. 731 [1, 4]: <1000 M⁻¹
- Binding constant for sugar chain No. 739 [1, 4]: <1000 M⁻¹
- Binding constant for sugar chain No. 909 [1, 4]: <1000 M⁻¹
- Binding constant for sugar chain No. 910 [1, 4]: <1000 M⁻¹
- Binding constant for sugar chain No. 931 [1, 4]: <1000 M⁻¹
- Binding constant for sugar chain No. 932 [1, 4]: <1000 M⁻¹
- Binding constant for sugar chain No. 933 [1, 4]: <1000 M⁻¹
- Binding constant for sugar chain No. 001 ([1]; sugar chain having no fucose): <1000 M⁻¹
- Binding constant for sugar chain No. 002 ([1]; sugar chain having no fucose): <1000 M⁻¹
- Binding constant for sugar chain No. 003 ([1]; sugar chain having no fucose): <1000 M⁻¹
- Binding constant for sugar chain No. 004 ([1]; sugar chain having no fucose): <1000 M⁻¹
- Binding constant for sugar chain No. 005 ([1]; sugar chain having no fucose): <1000 M⁻¹
- Binding constant for sugar chain No. 006 ([1]; sugar chain having no fucose): <1000 M⁻¹
- Binding constant for sugar chain No. 007 ([1]; sugar chain having no fucose): <1000 M⁻¹
- Binding constant for sugar chain No. 008 ([1]; sugar chain having no fucose): <1000 M⁻¹
- Binding constant for sugar chain No. 009 ([1]; sugar chain having no fucose): <1000 M⁻¹
- Binding constant for sugar chain No. 010 ([1]; sugar chain having no fucose): <1000 M⁻¹
- Binding constant for sugar chain No. 011 ([1]; sugar chain having no fucose): <1000 M⁻¹
- Binding constant for sugar chain No. 012 ([1]; sugar chain having no fucose): <1000 M⁻¹
- Binding constant for sugar chain No. 013 ([1]; sugar chain having no fucose): <1000 M⁻¹
- Binding constant for sugar chain No. 014 ([1]; sugar chain having no fucose): <1000 M⁻¹
- Binding constant for sugar chain No. 101 ([1]; sugar chain having no fucose): <1000 M⁻¹
- Binding constant for sugar chain No. 103 ([1]; sugar chain having no fucose): <1000 M⁻¹
- Binding constant for sugar chain No. 104 ([1]; sugar chain having no fucose): <1000 M⁻¹
- Binding constant for sugar chain No. 105 ([1]; sugar chain having no fucose): <1000 M⁻¹
- Binding constant for sugar chain No. 107 ([1]; sugar chain having no fucose): <1000 M⁻¹
- Binding constant for sugar chain No. 108 ([1]; sugar chain having no fucose): <1000 M⁻¹
- Binding constant for sugar chain No. 301 ([1]; sugar chain having no fucose): <1000 M⁻¹
- Binding constant for sugar chain No. 304 ([1]; sugar chain having no fucose): <1000 M⁻¹
- Binding constant for sugar chain No. 305 ([1]; sugar chain having no fucose): <1000 M⁻¹
- Binding constant for sugar chain No. 307 ([1]; sugar chain having no fucose): <1000 M⁻¹
- Binding constant for sugar chain No. 308 ([1]; sugar chain having no fucose): <1000 M⁻¹
- Binding constant for sugar chain No. 313 ([1]; sugar chain having no fucose): <1000 M⁻¹
- Binding constant for sugar chain No. 314 ([1]; sugar chain having no fucose): <1000 M⁻¹
- Binding constant for sugar chain No. 323 ([1]; sugar chain having no fucose): <1000 M⁻¹
- Binding constant for sugar chain No. 501 ([1]; sugar chain having no fucose): <1000 M⁻¹
- Binding constant for sugar chain No. 502 ([1]; sugar chain having no fucose): <1000 M⁻¹
- Binding constant for sugar chain No. 503 ([1]; sugar chain having no fucose): <1000 M⁻¹
- Binding constant for sugar chain No. 504 ([1]; sugar chain having no fucose): <1000 M⁻¹
- Binding constant for sugar chain No. 701 ([1]; sugar chain having no fucose): <1000 M⁻¹
- Binding constant for sugar chain No. 702 ([1]; sugar chain having no fucose): <1000 M⁻¹
- Binding constant for sugar chain No. 703 ([1]; sugar chain having no fucose): <1000 M⁻¹
- Binding constant for sugar chain No. 704 ([1]; sugar chain having no fucose): <1000 M⁻¹
- Binding constant for sugar chain No. 705 ([1]; sugar chain having no fucose): <1000 M⁻¹
- Binding constant for sugar chain No. 706 ([1]; sugar chain having no fucose): <1000 M⁻¹
- Binding constant for sugar chain No. 707 ([1]; sugar chain having no fucose): <1000 M⁻¹
- Binding constant for sugar chain No. 708 ([1]; sugar chain having no fucose): <1000 M⁻¹
- Binding constant for sugar chain No. 709 ([1]; sugar chain having no fucose): <1000 M⁻¹
- Binding constant for sugar chain No. 710 ([1]; sugar chain having no fucose): <1000 M⁻¹
- Binding constant for sugar chain No. 711 ([1]; sugar chain having no fucose): <1000 M⁻¹
- Binding constant for sugar chain No. 712 ([1]; sugar chain having no fucose): <1000 M⁻¹
- Binding constant for sugar chain No. 713 ([1]; sugar chain having no fucose): <1000 M⁻¹
- Binding constant for sugar chain No. 715 ([1]; sugar chain having no fucose): <1000 M⁻¹
- Binding constant for sugar chain No. 716 ([1]; sugar chain having no fucose): <1000 M⁻¹
- Binding constant for sugar chain No. 717 ([1]; sugar chain having no fucose): <1000 M⁻¹
- Binding constant for sugar chain No. 724 ([1]; sugar chain having no fucose): <1000 M⁻¹
- Binding constant for sugar chain No. 725 ([1]; sugar chain having no fucose): <1000 M⁻¹
- Binding constant for sugar chain No. 732 ([1]; sugar chain having no fucose): <1000 M⁻¹
- Binding constant for sugar chain No. 733 ([1]; sugar chain having no fucose): <1000 M⁻¹
- Binding constant for sugar chain No. 734 ([1]; sugar chain having no fucose): <1000 M⁻¹
- Binding constant for sugar chain No. 735 ([1]; sugar chain having no fucose): <1000 M⁻¹
- Binding constant for sugar chain No. 736 ([1]; sugar chain having no fucose): <1000 M⁻¹
- Binding constant for sugar chain No. 737 ([1]; sugar chain having no fucose): <1000 M⁻¹
- Binding constant for sugar chain No. 738 ([1]; sugar chain having no fucose): <1000 M⁻¹
- Binding constant for sugar chain No. 901 ([1]; sugar chain having no fucose): <1000 M⁻¹
- Binding constant for sugar chain No. 902 ([1]; sugar chain having no fucose): <1000 M⁻¹
- Binding constant for sugar chain No. 903 ([1]; sugar chain having no fucose): <1000 M⁻¹
- Binding constant for sugar chain No. 905 ([1]; sugar chain having no fucose): <1000 M⁻¹
- Binding constant for sugar chain No. 906 ([1]; sugar chain having no fucose): <1000 M⁻¹
- Binding constant for sugar chain No. 907 ([1]; sugar chain having no fucose): <1000 M⁻¹
- Binding constant for sugar chain No. 015 ([1]; sugar chain having α1→6 fucose): 36000 M⁻¹
- Binding constant for sugar chain No. 201 ([1]; sugar chain having α1→6 fucose): 38000 M⁻¹
- Binding constant for sugar chain No. 202 ([1]; sugar chain having α1→6 fucose): 39000 M⁻¹
- Binding constant for sugar chain No. 203 ([1]; sugar chain having α1→6 fucose): 30000 M⁻¹
- Binding constant for sugar chain No. 401 ([1]; sugar chain having α1→6 fucose): 51000 M⁻¹
- Binding constant for sugar chain No. 402 ([1]; sugar chain having α1→6 fucose): 36000 M⁻¹
- Binding constant for sugar chain No. 403 ([1]; sugar chain having α1→6 fucose): 52000 M⁻¹
- Binding constant for sugar chain No. 404 ([1]; sugar chain having α1→6 fucose): 43000 M⁻¹
- Binding constant for sugar chain No. 405 ([1]; sugar chain having α1→6 fucose): 50000 M⁻¹
- Binding constant for sugar chain No. 406 ([1]; sugar chain having α1→6 fucose): 23000 M⁻¹
- Binding constant for sugar chain No. 410 ([1]; sugar chain having α1→6 fucose): 220000 M⁻¹
- Binding constant for sugar chain No. 413 ([1]; sugar chain having α1→6 fucose): 280000 M⁻¹
- Binding constant for sugar chain No. 418 ([1]; sugar chain having α1→6 fucose): 220000 M⁻¹
- Binding constant for sugar chain No. 601 ([1]; sugar chain having α1→6 fucose): 240000 M⁻¹
- Binding constant for sugar chain No. 602 ([1]; sugar chain having α1→6 fucose): 120000 M⁻¹
- Binding constant for sugar chain No. 728 [2]: <1000 M⁻¹
Substance: NSL: fucose α1→6 specific lectin that can be extracted from Naematoloma sublateritium, SEQ ID No. 4 or 5
- Δ (=A − B) ([3]; pH in lectin reaction 7.4): 222 U/mL
- Δ (=A − B) ([3]; pH in lectin reaction 9.6): 240.3 U/mL
- lectin reaction value B of Healthy 1 ([3]; pH in lectin reaction 7.4): 177.7 U/mL
- lectin reaction value B of Healthy 1 ([3]; pH in lectin reaction 9.6): 42.3 U/mL
- lectin reaction value A of Prostate cancer 4 ([3]; pH in lectin reaction 7.4): 399.7 U/mL
- lectin reaction value A of Prostate cancer 4 ([3]; pH in lectin reaction 9.6): 282.6 U/mL
